From publication PMC4774911, “Biochemical Screening of Five Protein Kinases from Plasmodium falciparum against 14,000 Cell-Active Compounds” (PLoS ONE, 2016)
Several values for one entry are separate records, joined by “and”; a condition that tells them apart may be missing. Identical values can stand only once.

Columns and labels:
Assay in all cases: biochemical
Set-up in all cases: endogenous in cells; host or cells: K562 cell extract; species or system K562 (extract); replicate k of n = 2 (each experiment ID is one independent experiment; two experiment IDs per compound)
Conditions in all cases: read-out: KDapp
[1] = target: CDK10 (Homo sapiens, UniProt Q15131)
Sequence of CDK10 (Q15131 whole entry): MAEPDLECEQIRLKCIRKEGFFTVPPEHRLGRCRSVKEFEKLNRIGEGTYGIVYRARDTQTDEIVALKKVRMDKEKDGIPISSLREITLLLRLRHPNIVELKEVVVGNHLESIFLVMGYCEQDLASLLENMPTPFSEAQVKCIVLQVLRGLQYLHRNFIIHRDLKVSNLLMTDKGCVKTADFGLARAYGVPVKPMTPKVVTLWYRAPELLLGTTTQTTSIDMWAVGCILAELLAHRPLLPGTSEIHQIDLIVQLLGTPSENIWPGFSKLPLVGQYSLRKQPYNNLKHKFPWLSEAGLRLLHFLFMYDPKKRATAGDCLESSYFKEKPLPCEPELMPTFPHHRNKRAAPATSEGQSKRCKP

[2] = target: CSNK2A2 (Homo sapiens, UniProt P19784)
Sequence of CSNK2A2 (P19784 whole entry): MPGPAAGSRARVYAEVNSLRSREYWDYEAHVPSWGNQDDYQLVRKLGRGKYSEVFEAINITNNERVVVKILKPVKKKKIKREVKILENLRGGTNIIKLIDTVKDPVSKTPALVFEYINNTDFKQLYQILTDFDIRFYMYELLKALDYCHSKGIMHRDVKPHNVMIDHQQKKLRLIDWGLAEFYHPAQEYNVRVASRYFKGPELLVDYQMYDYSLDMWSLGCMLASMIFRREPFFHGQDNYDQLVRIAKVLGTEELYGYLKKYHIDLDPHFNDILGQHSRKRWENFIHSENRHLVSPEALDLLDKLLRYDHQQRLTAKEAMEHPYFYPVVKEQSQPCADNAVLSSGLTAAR

[3] = target: AAK1 (Homo sapiens, UniProt Q2M2I8)
Sequence of AAK1 (Q2M2I8 whole entry): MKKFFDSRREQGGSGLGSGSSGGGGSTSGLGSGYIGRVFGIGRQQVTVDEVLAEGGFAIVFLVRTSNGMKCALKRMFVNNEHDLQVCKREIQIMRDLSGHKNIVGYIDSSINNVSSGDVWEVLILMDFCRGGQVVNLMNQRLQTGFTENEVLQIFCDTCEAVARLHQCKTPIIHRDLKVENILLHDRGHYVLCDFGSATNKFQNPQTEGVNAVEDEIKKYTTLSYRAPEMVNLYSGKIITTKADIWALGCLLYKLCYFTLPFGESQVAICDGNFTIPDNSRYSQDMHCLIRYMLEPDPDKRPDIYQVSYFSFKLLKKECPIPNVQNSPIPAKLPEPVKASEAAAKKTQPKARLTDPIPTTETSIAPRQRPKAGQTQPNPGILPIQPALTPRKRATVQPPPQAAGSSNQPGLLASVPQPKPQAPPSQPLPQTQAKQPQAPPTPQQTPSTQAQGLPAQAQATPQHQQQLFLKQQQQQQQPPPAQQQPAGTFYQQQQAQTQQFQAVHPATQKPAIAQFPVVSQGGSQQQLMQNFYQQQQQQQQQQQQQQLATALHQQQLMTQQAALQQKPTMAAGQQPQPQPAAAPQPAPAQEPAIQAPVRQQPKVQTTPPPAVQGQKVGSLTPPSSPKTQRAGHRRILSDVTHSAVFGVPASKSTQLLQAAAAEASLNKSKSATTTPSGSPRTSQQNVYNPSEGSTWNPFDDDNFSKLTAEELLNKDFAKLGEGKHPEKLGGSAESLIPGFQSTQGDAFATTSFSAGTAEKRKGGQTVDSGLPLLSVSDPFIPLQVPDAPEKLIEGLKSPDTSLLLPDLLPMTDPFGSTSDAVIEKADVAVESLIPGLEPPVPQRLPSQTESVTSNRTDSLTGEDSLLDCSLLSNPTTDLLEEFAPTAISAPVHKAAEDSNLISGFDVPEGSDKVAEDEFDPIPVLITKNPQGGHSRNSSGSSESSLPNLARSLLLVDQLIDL

[4] = target: T1, AURKA (Homo sapiens, UniProt O14965)
T1 sequence (O14965 1-403): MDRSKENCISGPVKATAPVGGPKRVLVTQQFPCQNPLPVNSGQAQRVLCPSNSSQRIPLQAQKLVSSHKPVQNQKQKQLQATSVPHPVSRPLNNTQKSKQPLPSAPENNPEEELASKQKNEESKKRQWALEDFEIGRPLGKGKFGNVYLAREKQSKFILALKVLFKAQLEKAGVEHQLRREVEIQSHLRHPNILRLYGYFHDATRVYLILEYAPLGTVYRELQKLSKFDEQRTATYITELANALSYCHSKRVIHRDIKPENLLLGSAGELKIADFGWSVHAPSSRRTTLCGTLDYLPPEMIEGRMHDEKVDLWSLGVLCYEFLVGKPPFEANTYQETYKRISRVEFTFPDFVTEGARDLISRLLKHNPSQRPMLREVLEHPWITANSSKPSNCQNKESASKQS

[5] = target: BTK (Homo sapiens, UniProt Q06187)
Sequence of BTK (Q06187 whole entry): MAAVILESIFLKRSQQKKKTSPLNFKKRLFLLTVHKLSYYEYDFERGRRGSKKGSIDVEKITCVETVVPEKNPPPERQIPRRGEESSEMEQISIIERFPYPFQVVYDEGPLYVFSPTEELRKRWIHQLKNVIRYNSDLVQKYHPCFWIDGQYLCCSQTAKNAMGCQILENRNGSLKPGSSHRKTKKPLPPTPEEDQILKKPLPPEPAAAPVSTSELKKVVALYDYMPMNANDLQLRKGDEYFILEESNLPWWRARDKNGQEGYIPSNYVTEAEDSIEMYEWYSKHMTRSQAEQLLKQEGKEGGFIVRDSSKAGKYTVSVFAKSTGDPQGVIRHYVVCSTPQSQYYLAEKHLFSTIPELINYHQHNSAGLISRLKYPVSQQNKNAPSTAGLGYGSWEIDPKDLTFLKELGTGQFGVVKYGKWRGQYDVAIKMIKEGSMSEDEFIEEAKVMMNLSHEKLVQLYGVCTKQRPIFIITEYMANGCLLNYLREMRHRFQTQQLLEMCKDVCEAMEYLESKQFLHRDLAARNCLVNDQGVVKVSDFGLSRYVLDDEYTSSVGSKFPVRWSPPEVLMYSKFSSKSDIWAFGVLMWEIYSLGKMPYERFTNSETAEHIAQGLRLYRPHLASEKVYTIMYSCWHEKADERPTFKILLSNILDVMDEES

[6] = target: CAMK2D (Homo sapiens, UniProt Q13557)
Sequence of CAMK2D (Q13557 whole entry): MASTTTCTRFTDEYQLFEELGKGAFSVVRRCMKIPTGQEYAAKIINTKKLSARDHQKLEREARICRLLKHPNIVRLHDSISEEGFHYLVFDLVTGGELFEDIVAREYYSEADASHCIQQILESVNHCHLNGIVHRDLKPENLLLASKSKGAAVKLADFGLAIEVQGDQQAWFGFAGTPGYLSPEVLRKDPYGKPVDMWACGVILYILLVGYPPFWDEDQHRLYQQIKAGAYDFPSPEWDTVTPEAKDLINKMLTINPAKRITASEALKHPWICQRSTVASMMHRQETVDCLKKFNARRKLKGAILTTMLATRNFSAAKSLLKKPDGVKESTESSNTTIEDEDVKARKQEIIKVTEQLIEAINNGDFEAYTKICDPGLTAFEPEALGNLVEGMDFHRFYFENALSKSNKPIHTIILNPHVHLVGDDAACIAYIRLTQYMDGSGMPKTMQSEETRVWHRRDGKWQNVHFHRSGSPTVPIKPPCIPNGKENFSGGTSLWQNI

[7] = target: T2, MAP4K2 (Homo sapiens, UniProt Q12851)
T2 sequence (Q12851 1-820): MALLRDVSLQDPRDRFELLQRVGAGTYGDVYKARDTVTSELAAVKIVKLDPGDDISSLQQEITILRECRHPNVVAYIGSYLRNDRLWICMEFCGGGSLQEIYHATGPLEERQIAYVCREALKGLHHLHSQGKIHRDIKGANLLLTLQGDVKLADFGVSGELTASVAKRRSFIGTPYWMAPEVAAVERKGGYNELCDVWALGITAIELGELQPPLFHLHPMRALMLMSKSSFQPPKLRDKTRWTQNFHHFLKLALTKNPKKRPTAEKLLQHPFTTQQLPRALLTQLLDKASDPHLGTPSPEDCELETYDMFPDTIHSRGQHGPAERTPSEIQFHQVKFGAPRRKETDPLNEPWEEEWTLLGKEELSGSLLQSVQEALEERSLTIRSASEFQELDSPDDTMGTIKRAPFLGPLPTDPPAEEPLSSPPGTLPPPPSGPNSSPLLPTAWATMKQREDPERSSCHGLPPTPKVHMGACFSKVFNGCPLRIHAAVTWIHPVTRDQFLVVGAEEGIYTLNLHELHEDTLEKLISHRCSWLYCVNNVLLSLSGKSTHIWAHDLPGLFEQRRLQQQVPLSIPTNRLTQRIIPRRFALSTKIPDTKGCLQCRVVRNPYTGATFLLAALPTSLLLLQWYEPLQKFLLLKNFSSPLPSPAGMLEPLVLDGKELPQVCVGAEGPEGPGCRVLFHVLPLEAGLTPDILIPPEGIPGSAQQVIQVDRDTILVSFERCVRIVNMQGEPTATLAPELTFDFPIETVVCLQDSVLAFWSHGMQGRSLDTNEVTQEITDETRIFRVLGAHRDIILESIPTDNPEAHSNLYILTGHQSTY

[8] = target: NEK6 (Homo sapiens, UniProt Q9HC98)
Sequence of NEK6 (Q9HC98 whole entry): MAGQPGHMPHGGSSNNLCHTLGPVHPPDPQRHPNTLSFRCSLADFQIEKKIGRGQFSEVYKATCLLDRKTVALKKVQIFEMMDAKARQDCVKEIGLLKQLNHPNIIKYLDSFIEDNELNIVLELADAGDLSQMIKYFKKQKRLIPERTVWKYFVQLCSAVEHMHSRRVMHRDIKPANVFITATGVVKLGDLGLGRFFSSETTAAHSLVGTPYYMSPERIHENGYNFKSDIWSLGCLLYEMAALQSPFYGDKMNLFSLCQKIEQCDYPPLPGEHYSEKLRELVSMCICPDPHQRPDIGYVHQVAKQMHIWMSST

[9] = target: NTRK1 (Homo sapiens, UniProt P04629)
Sequence of NTRK1 (P04629 whole entry): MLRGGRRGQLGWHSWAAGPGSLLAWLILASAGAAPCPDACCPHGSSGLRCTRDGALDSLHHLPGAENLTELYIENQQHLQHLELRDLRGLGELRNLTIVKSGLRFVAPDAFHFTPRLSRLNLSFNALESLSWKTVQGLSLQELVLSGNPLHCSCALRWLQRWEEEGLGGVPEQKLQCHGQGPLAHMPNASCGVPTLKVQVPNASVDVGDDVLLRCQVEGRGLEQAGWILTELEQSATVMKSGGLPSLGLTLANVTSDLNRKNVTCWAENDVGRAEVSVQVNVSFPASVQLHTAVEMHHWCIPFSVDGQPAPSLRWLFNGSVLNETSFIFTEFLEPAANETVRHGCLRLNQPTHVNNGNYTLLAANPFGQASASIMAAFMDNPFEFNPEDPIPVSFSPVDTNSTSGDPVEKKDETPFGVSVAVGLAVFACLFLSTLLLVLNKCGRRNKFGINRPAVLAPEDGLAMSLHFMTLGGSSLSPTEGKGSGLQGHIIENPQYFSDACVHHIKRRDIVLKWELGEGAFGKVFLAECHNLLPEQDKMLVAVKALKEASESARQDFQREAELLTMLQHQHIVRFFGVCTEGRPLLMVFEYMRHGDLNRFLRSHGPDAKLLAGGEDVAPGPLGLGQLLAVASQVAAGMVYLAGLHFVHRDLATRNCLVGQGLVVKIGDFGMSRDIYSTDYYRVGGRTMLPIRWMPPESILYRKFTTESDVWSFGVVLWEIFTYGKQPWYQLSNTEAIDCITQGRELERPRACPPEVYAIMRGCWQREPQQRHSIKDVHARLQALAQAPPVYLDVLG

[10] = target: T3, TP53RK (Homo sapiens, UniProt Q96S44)
T3 sequence (Q96S44 1-253): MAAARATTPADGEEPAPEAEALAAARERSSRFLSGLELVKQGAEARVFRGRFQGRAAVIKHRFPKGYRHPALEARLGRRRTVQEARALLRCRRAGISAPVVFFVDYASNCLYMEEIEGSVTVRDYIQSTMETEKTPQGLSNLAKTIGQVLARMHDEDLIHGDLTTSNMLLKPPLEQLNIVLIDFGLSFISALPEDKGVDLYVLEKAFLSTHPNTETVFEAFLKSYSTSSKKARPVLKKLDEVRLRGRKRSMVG

| Structure (SMILES) | Kd [1] | Kd [2] | Kd [3] | Kd [4] | Kd [5] | Kd [6] | Kd [7] | Kd [8] | Kd [9] | Kd [10] |
| --- | --- | --- | --- | --- | --- | --- | --- | --- | --- | --- |
| CN(C)CC(O)COc1ccc(Nc2ncc([N+](=O)[O-])c(Nc3ccccc3O)n2)cc1.O=C(O)C(F)(F)F (stereo not shown) [TCMDC-141399] | 630 nM | 33.3 nM and 26.8 nM |  |  |  |  |  |  |  |  |
| CN1CCN(c2ccc(Nc3ncc(C#N)c(Nc4ccccc4C(N)=O)n3)cc2)CC1.Cl [TCMDC-134116] |  |  | 36.7 nM | 12.3 nM | 207 nM and 231 nM | 323 nM and 163 nM | 648 nM | 160 nM | 1030 nM and 701 nM | 3770 nM |
